# Laboratory results taken from patent publication US11090304B2 (Amgen Inc., priority 2018, dated 2021).
# Read-outs that look alike come from different tables or passages of the source.
# Assays:
# [1] = tested on: Phosphorylation of ERK1/2 in MIA PaCa-2 cells; experiment: Phospho-ERK1/2 MSD assay in MIA PaCa-2 cells; format: cell-based
# Procedure, shortened: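 MIA PaCa-2 or A549 cells were treated with a compound dose-response titration for 2 or 4 h at 37 °C, then stimulated with 10 ng/mL EGF for 10 min. Phospho-ERK1/2 in RIPA lysates was measured by MSD whole-cell lysate immunoassay, and IC50 came from a 4-parameter logistic fit.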
# [2] = tested on: Phosphorylation of ERK1/2 in A549 cells; experiment: Phospho-ERK1/2 MSD assay in A549 cells; format: cell-based
# Experimental: For compounds in Table 89, the following assay conditions were employed:
# Phospho-ERK1/2 MSD Assay:
# Sixteen hours prior to compound treatment, MIA PaCa-2 or A549 cells were seeded in 96-well cell culture plates at a density of 25,000 cells/well and incubated at 37° C., 5% CO2. A compound dose-response titration was diluted in growth media, added to appropriate wells of a cell culture plate, and then incubated at 37° C., 5% CO2 for 2 or 4 hours (see Table 15). Following compound treatment, cells were stimulated with 10 ng/mL EGF (Roche 11376454001) for 10 min, washed with ice-cold Dulbecco's phosphate-buffered saline, no Ca^2+ or Mg^2+ (ThermoFisher Scientific 14190144), and then lysed in RIPA buffer (50 mM Tris-HCl pH 7.5, 1% Igepal, 0.5% sodium deoxycholate, 150 mM NaCl, and 0.5% sodium dodecyl sulfate) containing protease inhibitors (Roche 4693132001) and phosphatase inhibitors (Roche 4906837001). Phosphorylation of ERK1/2 in compound-treated lysates was assayed using Phospho-ERK1/2 Whole Cell Lysate kits (Meso Scale Discovery K151DWD) according to the manufacturer's protocol. Assay plates were read on a Meso Scale Discovery Sector Imager 6000, and data were analyzed using a 4-parameter logistic model to calculate IC50 values.
# [3] = target: GDP-bound KRAS protein (aa 1-169), containing both G12C and C118A amino acid substitutions (Homo sapiens, UniProt P01116, C118A/G12C); experiment: Coupled nucleotide exchange assay (SOS-mediated, AlphaScreen); format: biochemical; conditions: 5 min compound pre-incubation
# [4] = read-out: p-ERK IC50 (2 h; MIA PaCa-2), 2 h compound treatment
# [5] = Homo sapiens, A549, 2 h, read-out: p-ERK IC50 (2 h; A549), 2 h compound treatment
# [6] = Homo sapiens, MIA PaCa-2, 2 h, read-out: p-ERK IC50 (2 h; MIA PaCa-2), 2 h compound treatment
# Chain of GDP-bound KRAS protein (aa 1-169), containing both G12C and C118A amino acid substitutions (P01116 1-169 isoform P01116-2 G12C/C118A): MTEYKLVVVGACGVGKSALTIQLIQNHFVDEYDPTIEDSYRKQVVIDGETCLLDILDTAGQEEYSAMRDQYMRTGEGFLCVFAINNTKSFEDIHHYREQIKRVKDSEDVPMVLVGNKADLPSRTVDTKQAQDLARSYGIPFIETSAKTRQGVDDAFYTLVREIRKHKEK
Structure (SMILES),"IC50 [2, 5]",Coupled exchange IC50 (5 min) [3],"IC50 [1, 6]",further results
"C=CC(=O)N1CCN(c2nc(=O)n(-c3ccccc3C(C)C)c3cc(Br)c(Cl)cc23)[C@@H](C)C1 (single isomer, unassigned) [Example 9-17-1]",–,–,–,"IC50 ([1]; read-out: p-ERK IC50 (4 h; MIA PaCa-2), 4 h compound treatment): 2180 nM; IC50 ([2]; read-out: p-ERK IC50 (4 h; A549), 4 h compound treatment): 75800 nM"
"C=CC(=O)N1CCN(c2nc(=O)n(-c3ccccc3C(C)C)c3nc(-c4ccccc4Cl)c(Cl)cc23)[C@@H](C)C1 (single isomer, unassigned) [Example 54-84-1]",≥ 100000 nM,–,–,"IC50 [1, 4]: 744 nM"
"C=CC(=O)N1CCN(c2nc(=O)n(-c3ccccc3C(C)C)c3nc(-c4ccccc4F)c(Cl)cc23)[C@@H](C)C1 (single isomer, unassigned) [Example 54-86-1]",≥ 10000 nM,–,–,"IC50 [1, 4]: 670 nM"
"C=CC(=O)N1CCN(c2nc(=O)n(-c3ccccc3C(C)C)c3nc(-c4c(O)cccc4F)c(Cl)cc23)CC1 (single isomer, unassigned) [Example 60-24-1, (M)-6-chloro-7-(2-fluoro-6-hydroxyphenyl)-1-(2-(2-propanyl)phenyl)-4-(4-(2-propenoyl)-1-piperazinyl)pyrido[2,3-d]pyrimidin-2(1H)-one]",≥ 100000 nM,–,–,–
"C=CC(=O)N1CCN(c2nc(=O)n(-c3ccccc3C(C)C)c3cc(-c4ccccc4F)c(Cl)cc23)[C@@H](C)C1 (single isomer, unassigned) [Example 62-1-1]",≥ 10000 nM,–,–,"IC50 [1, 4]: 431 nM"
"C=CC(=O)N1CCN(c2nc(=O)n(-c3ccccc3C(C)C)c3cc(-c4ccccc4F)c(Cl)cc23)CC1 (single isomer, unassigned) [Example 88-1, 6-chloro-7-(2-fluorophenyl)-1-(2-(2-propanyl)phenyl)-4-(4-(2-propenoyl)-1-piperazinyl)-2(1H)-quinazolinone]",≥ 10000 nM,–,–,–
"C=CC(=O)N1CCN(c2nc(=O)n(-c3ccccc3C(C)C)c3cc(-c4ccccc4C(F)(F)F)c(Cl)cc23)[C@@H](C)C1 [Example 62-2, 6-chloro-4-((2S)-2-methyl-4-(2-propenoyl)-1-piperazinyl)-1-(2-(2-propanyl)phenyl)-7-(2-(trifluoromethyl)phenyl)-2(1H)-quinazolinone]",≥ 10000 nM,–,–,–
"C=CC(=O)N1CCN(c2nc(=S)n(-c3c(CC)cccc3CC)c3cc(-c4ccccc4F)c(Cl)cc23)[C@@H](C)C1 [Example 116, 1-((3S)-4-(6-Chloro-1-(2,6-diethylphenyl)-7-(2-fluorophenyl)-2-sulfanylidene-1,2-dihydro-4-quinazolinyl)-3-methyl-1-piperazinyl)-2-propen-1-one]",–,0.232 | nda μM,543 nM,–
"C=CC(=O)N1CCN(c2cc(=O)n(-c3ccccc3C(C)C)c3nc(-c4ccccc4F)c(Cl)cc23)[C@@H](C)C1 [Example 126, 6-Chloro-7-(2-fluorophenyl)-4-((2S)-2-methyl-4-(2-propenoyl)-1-piperazinyl)-1-(2-(2-propanyl)phenyl)-1,8-naphthyridin-2(1H)-one]",–,2.05 | nda μM,1720 nM,–
"C=CC(=O)N1CCN(c2nc(=O)n(-c3c(C(=O)O)cccc3C(C)C)c3nc(-c4ccccc4F)c(Cl)cc23)[C@@H](C)C1 [Example 132, 2-(6-Chloro-7-(2-fluorophenyl)-4-((2S)-2-methyl-4-(2-propenoyl)-1-piperazinyl)-2-oxopyrido[2,3-d]pyrimidin-1(2H)-yl)-3-(2-propanyl)benzoic acid]",–,0.107 | nda μM,10000 nM,–
"C=CC(=O)N1CCN(c2nc(=O)n(-c3c(Cl)ncnc3C(C)C)c3nc(-c4ccccc4F)c(Cl)cc23)[C@@H](C)C1 [Example 133, 6-Chloro-1-(4-chloro-6-(2-propanyl)-5-pyrimidinyl)-7-(2-fluorophenyl)-4-((2S)-2-methyl-4-(2-propenoyl)-1-piperazinyl)pyrido[2,3-d]pyrimidin-2(1H)-one]",–,0.119 | nda μM,198 nM,–
"C=CC(=O)N1CCN(c2nc(=O)n(-c3c(C)cc(N)nc3C(C)C)c3nc(-c4ccccc4F)c(Cl)cc23)[C@@H](C)C1 [Example 136, 1-(6-Amino-4-methyl-2-(2-propanyl)-3-pyridinyl)-6-chloro-7-(2-fluorophenyl)-4-((2S)-2-methyl-4-(2-propenoyl)-1-piperazinyl)pyrido[2,3-d]pyrimidin-2(1H)-one]",–,0.135 | nda μM,121 nM,–
"C=CC(=O)N1CCN(c2nc(=O)n(-c3c(C)cc(O)nc3C(C)C)c3nc(-c4ccccc4F)c(Cl)cc23)[C@@H](C)C1 [Example 137, 6-chloro-7-(2-fluorophenyl)-1-(4-methyl-6-oxo-2-(2-propanyl)-1,6-dihydro-3-pyridinyl)-4-((2S)-2-methyl-4-(2-propenoyl)-1-piperazinyl)pyrido[2,3-d]pyrimidin-2(1H)-one]",–,0.5 | nda μM,1790 nM,–
"C=CC(=O)N1CCN(c2nnc(-c3c(C(C)C)cccc3C(C)C)c3nc(-c4ccccc4F)c(Cl)cc23)[C@@H](C)C1 [Example 138, 1-((3S)-4-(3-Chloro-8-(2,6-di(2-propanyl)phenyl)-2-(2-fluorophenyl)pyrido[2,3-d]pyridazin-5-yl)-3-methyl-1-piperazinyl)-2-propen-1-one]",–,1.75 | nda μM,1590 nM,–
"C=CC(=O)N1CCN(c2nc(=O)n(-c3c(C(C)C)nc(N)nc3C(C)C)c3nc(-c4ccccc4F)c(Cl)cc23)[C@@H](C)C1 [Example 139, 1-(2-Amino-4,6-di(2-propanyl)-5-pyrimidinyl)-6-chloro-7-(2-fluorophenyl)-4-((2S)-2-methyl-4-(2-propenoyl)-1-piperazinyl)pyrido[2,3-d]pyrimidin-2(1H)-one]",–,0.117 | nda μM,25 nM,–
"C=CC(=O)N1CCN(c2nc(=O)n(-c3c(C(C)C)ncnc3N(C)C)c3nc(-c4ccccc4F)c(Cl)cc23)[C@@H](C)C1 [Example 140, 6-Chloro-1-(4-(dimethylamino)-6-(2-propanyl)-5-pyrimidinyl)-7-(2-fluorophenyl)-4-((2S)-2-methyl-4-(2-propenoyl)-1-piperazinyl)pyrido[2,3-d]pyrimidin-2(1H)-one]",–,0.09 | nda μM,96 nM,–
"C=CC(=O)N1CCN(c2nc(=O)n(-c3c(C)cc(C(=O)O)cc3C(C)C)c3nc(-c4ccccc4F)c(Cl)cc23)[C@@H](C)C1 [Example 141, 4-(6-Chloro-7-(2-fluorophenyl)-4-((2S)-2-methyl-4-(2-propenoyl)-1-piperazinyl)-2-oxopyrido[2,3-d]pyrimidin-1(2H)-yl)-3-methyl-5-(2-propanyl)benzoic acid]",–,0.393 | nda μM,5200 nM,–
"C=CC(=O)N1CCN(c2nc(=O)n(-c3c(N)cccc3C(C)C)c3nc(-c4ccccc4F)c(Cl)cc23)[C@@H](C)C1 [Example 155, 1-(2-Amino-6-(2-propanyl)phenyl)-6-chloro-7-(2-fluorophenyl)-4-((2S)-2-methyl-4-(2-propenoyl)-1-piperazinyl)pyrido[2,3-d]pyrimidin-2(1H)-one]",–,0.108 | nda μM,103 nM,–
"C=CC(=O)N1CCN(c2nc(=O)n(-c3c(C)cc(C(=O)OC)cc3C(C)C)c3nc(-c4ccccc4F)c(Cl)cc23)[C@@H](C)C1 [Example 156, Methyl 4-(6-chloro-7-(2-fluorophenyl)-4-((2S)-2-methyl-4-(2-propenoyl)-1-piperazinyl)-2-oxopyrido[2,3-d]pyrimidin-1(2H)-yl)-3-methyl-5-(2-propanyl)benzoate]",–,0.057 | nda μM,80 nM,–
